Source: ChEMBL document CHEMBL1134697, “Synthesis and antiproliferative activity of epoxy and bromo compounds derived from estrone” (Bioorg Med Chem Lett, 2001)
pIC50: −log10 of the molar value.

Columns and labels:
[1] = test system: K562; experiment: Antiproliferative activity was determined after 48 hr exposure to human myelogenous leukemia K562 cells; type: functional, cell-based; settings: K562, 48 h
[2] = Antiproliferative activity was determined after 48 hr exposure to human melanoma Fem-X cell; type: functional, cell-based
[3] = test system: HeLa; experiment: Antiproliferative activity was determined after 48 hr exposure to human cervix carcinoma HeLa cells; type: functional, cell-based
[4] = Antiproliferative activity was determined after 72 hr exposure to normal human peripheral blood mononuclear cells (PBMC) in the absence of 5 ug/mL Phytohemagglutinine; type: functional
[5] = Antiproliferative activity was determined after 72 hr exposure to normal human peripheral blood mononuclear cells (PBMC) in the presence of 5 ug/mL Phytohemagglutinine; type: functional
[6] = Antiproliferative activity was determined after 72 hr exposure to human melanoma Fem-x cells; type: functional, cell-based
[7] = test system: K562; experiment: Antiproliferative activity was determined after 72 hr exposure to human myelogenous leukemia K562 cells; type: functional, cell-based; settings: K562, 72 h
[8] = test system: P388; experiment: Concentration required for antiproliferative activity against P388 cell survival by 50%; type: functional, cell-based; settings: Mus musculus

Work on `C[C@]12CCC3C(CC[C@]45O[C@H]4[C@@H](O)C=C[C@]35O)C1CCC2O` (some centres undefined) yielded a pIC50 [1] of under 3.57, a pIC50 [2] of under 3.57 and a pIC50 [3] of under 3.57.
`C[C@]12CCC3C(CCC4=CC(=O)C=C[C@@]43O)C1CCC2=O` (some centres undefined) gave a pIC50 [1] of under 4.00, a pIC50 [2] of under 4.00 and a pIC50 [3] of under 4.00.
In the case of `C[C@]12CCC3[C@@H](CCC4=C(Br)C(=O)C=C[C@@]43O)[C@@H]1CCC2=O` (some centres undefined), the pIC50 [4] was 4.91, the pIC50 [1] was 4.86 and the pIC50 [2] was 4.84. The pIC50 [5] was 5.28, the pIC50 [3] was 5.21 and the pIC50 [6] was 5.34. It also gave a pIC50 [7] of 5.23.
For `C[C@]12CCC3[C@@H](CC[C@]45O[C@H]4C(=O)C(Br)=C[C@]35O)[C@@H]1CCC2=O` (some centres undefined), the pIC50 [4] was 5.54, the pIC50 [1] was 5.92 and the pIC50 [2] was 5.22. For the same compound, the pIC50 [5] was 5.89, the pIC50 [3] was 5.60 and the pIC50 [6] was 6.00. For the same compound, the pIC50 [7] was 6.15.
For `C[C@]12CC[C@H]3[C@@H](CC[C@]45O[C@H]4C(=O)C=C[C@]35O)[C@@H]1CCC2=O`, the pIC50 [1] was 5.21, the pIC50 [2] was 5.15 and the pIC50 [3] was 5.24.
In the case of `O=C1C(Br)=C[C@H](O)[C@H]2O[C@@H]12`, the pIC50 [8] was 7.31.
